Tests used:
[1] = molecular target: T1, ATP-sensitive inward rectifier potassium channel 1 (Homo sapiens, UniProt P48048); assay: Electrophysiology Assay: Block of Kir1.1 (ROMK1) currents was examined by whole cell voltage clamp (Hamill et. al. Pfluegers Archives 391:85-100 (1981)) using the IonWorks Quattro automated electrophysiology platform (Molecular Devices, Sunnyvale, Calif.). Chinese hamster ovary cells stably expressing Kir1.1 channels were maintained in T-75 flasks in cell culture media in a humidified 10% CO2 incubator at 37° C. Prior to an experiment, Kir1.1 expression was induced by overnight incubation with 1 mM sodium butyrate. On the day of the experiment, cells were dissociated with 2.5 ml of Versene (Invitrogen 15040-066) for approximately 6 minutes at 37° C. and suspended in 10 ml of bath solution containing (in mM): 150 NaCl, 10 KCl, 2.7 CaCl2, 0.5 MgCl2, 5 HEPES, pH 7.4. After centrifugation, the cell pellet was resuspended in approximately 4.0 ml of bath solution and placed in the IonWorks instrument. The intracellular solution consisted of (in mM): 80 K gluconate, 40 KCl, 20 KF, 3.2 MgCl2, 3 EGTA, 5 Hepes, pH 7.4. Electrical access to the cytoplasm was achieved by perforation in 0.13 mg/ml amphotericin B for 4 minutes. Amphotericin B (Sigma A-4888) was prepared as a 40 mg/ml solution in DMSO.; type: cell-based
T1 sequence (P48048 whole entry): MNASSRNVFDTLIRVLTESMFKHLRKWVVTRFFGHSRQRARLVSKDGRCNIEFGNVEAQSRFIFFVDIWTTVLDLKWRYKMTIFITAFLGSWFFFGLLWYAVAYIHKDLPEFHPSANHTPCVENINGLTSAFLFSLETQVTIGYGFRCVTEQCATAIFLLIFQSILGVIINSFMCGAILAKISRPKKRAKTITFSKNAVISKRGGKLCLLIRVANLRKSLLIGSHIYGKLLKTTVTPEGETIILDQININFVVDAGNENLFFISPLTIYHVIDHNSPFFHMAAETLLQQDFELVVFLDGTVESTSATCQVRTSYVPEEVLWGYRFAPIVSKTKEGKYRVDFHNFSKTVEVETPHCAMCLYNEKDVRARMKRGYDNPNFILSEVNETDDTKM

[2] = molecular target: T1, ATP-sensitive inward rectifier potassium channel 1; assay: Thallium Flux Assay: The ROMK channel functional thallium flux assay is performed in 384 wells, using the FLIPR-Tetra instrument. HEK-hKir1.1 cells are seeded in Poly-D-Lysine microplates and kept in a 37° C.-10% CO2 incubator overnight. On the day of the experiment, the growth media is replaced with the FluxOR reagent loading buffer and incubated, protected from light, at ambient temperature (23-25° C.) for 90 min. The loading buffer is replaced with assay buffer test compound followed by 30 min incubation at ambient temperature, where the Thallium/Potassium stimulant is added to the microplate. Step Protocol 1. Seed HEK-hKir1.1 cells (50 ul at 20,000 cells/well) in 384-well PDL coated Microplates 2. Allow cells to adhere overnight in humidified 37° C./10% CO2 incubator 3. Completely remove cell growth media from microplate and replace with 25 ul loading buffer 4. Incubate Microplate at room temperature, protected form light, for 90 min 5. Remove loading buffer and replace with 25 ul 1x Assay Buffer±test compound.Â 6. Incubate microplate at room temperature, protected form light, for 30 min 7. At FLIPR-Tetra 384: Add stimulant (Thallium/Potassium) solution to microplate and monitor fluorescence. Excitation=400 nm, Emission=460 & 580 nm. Collect data for 10 min.Â Data Calculation: The fluorescence intensity of wells containing 3 uM of a standard control ROMK inhibitor of the present invention is used to define the ROMK-sensitive component of thallium flux. Fluorescence in the presence of test compounds is normalized to control values to provide % fluorescence change.

IC50 [1] [nM]	IC50 [2] [nM]	Structure (SMILES)
11	91	Cc1c([C@@H](O)CN2CCC3(CCCN3C[C@H](O)c3ccc4c(c3C)COC4=O)C2)ccc2c1COC2=O (stereo partly specified)
	1210	Cc1c([C@@H](O)CN2CCC3(CC2)CCN(C[C@H](O)c2ccc4c(c2C)COC4=O)C3)ccc2c1COC2=O
39		Cc1c([C@@H](O)CN2C(C)CC3CN(CC(O)c4ccc(C#N)cn4)CC32)ccc2c1COC2=O (single isomer, unassigned)
62	402	Cc1c([C@@H](O)CN2CCC3CN(S(=O)(=O)c4ccc(C#N)cc4)CC32)ccc2c1COC2=O (single isomer, unassigned)

Reference: ChEMBL document CHEMBL3887000, “Inhibitors of the renal outer medullary potassium channel” (2016)
